Experimental data taken from patent EP0974351A2, “Medicament for preventing and treating gastrointestinal damage” (JOUVEINAL, priority 1998, dated 2000).

Experiments:
[1] = tested on: LPS-Induced Delayed (12 Hours) Allodynia; assay: LPS-induced delayed (12 hours) rectal allodynia in rats; assay type: in vivo, Male Wistar rats
Description: (§1) The GABA analogs also have been evaluated for their ability to control and treat gastrointestinal disorders characterized as IBD and IBS. The assay utilized to evaluate the GABA analogs measures the effects of compound on lipopolysaccharide-induced delayed rectal allodynia in rats. Intraperitoneal (IP) injections of the endotoxin lipopolysaccharide (LPS) are known to induce long-lasting hyperalgesia in somatic pain models. The following assay was designed to evaluate the effect of IP injections of LPS on pain visceral threshold in an experimental model of rectal distension.
(§2) Male Wistar rats weighing 250 to 350 g were surgically prepared for electromyography, according to a previously described technique. Rats were anesthetized by i.p. injection of acepromazine and ketamine (Imalgene 1000, Rhöne-Mérieux, Lyon, France) at doses of 0.6 and 120 mg/kg, respectively. […] Electrodes were exteriorized on the back of the neck and protected by a glass tube attached to the skin. Animals were individually housed in polypropylene cages and kept in a temperature-controlled room (21°C). They were allowed free access to water and food (UAR pellets, Epinay, France).
(§3) Electromyographic recording began 5 days after surgery. The electrical activity of abdominal striated muscles was recorded with an electroencephalograph machine (Mini VIII, Alvar, Paris, France) using a short-time constant (0.03 sec) to remove low-frequency signals (<3 Hz) and a paper speed of 3.6 cm/minute.
(§4) Rats were placed in plastic tunnels (6 cm diameter; 25 cm length) where they could not move, escape or turn around, in order to prevent damage to the balloon. They are accustomized to this procedure for 3 or 4 days before rectal distension (RD) in order to minimize stress reaction during experiments. […] The balloon used for distension was an arterial embolectomy catheter (Fogarty, Edwards Laboratories, Inc., Santa Ana, USA). RD was performed by insertion of the balloon (2-mm diameter; 2-cm long) in the rectum, at 1 cm of the anus, the catheter being fixed at the tail. It was inflated progressively by step of 0.4 mL, from 0 to 1.6 mL, each step of inflation lasting 5 minutes. To detect possible leakage, the volume of water introduced in the balloon was checked by complete removal with a syringe at the end of the distension period.
In a second series of experiments, the same group of 8 rats received IP lipopolysaccharide (E Coil, serotype 0111:B4) or its vehicle, at a dose of 1 mg/kg IP, 1 hour after a control rectal distension. […]
(§5) Statistical analysis of the number of abdominal contractions occurring during each 5-minute period during RD was performed by one-way ANOVA followed by Student's paired t-test. Values were expressed as the mean ± SEM, and differences were considered significant for p <0.05.

[2] = tested on: Abdominal Response Induced by Rectal Distension; assay: Abdominal response induced by rectal distension in rats (electromyography); assay type: in vivo, Male Wistar rats
Description: as §1, §2, §3, §4
In a first series of experiments, a group of 89 rats were submitted to gradual rectal distention. The animals were previously (30 minutes) treated by gabapentin at doses of 30 and 100 mg/kg IP or its vehicle ([…]).
as §5

[3] = tested on: gastric lesions caused by indomethacin; assay: Indomethacin-induced gastric lesions in rats (gabapentin pretreatment); assay type: in vivo, Male Sprague-Dawley rats; conditions: for gastric lesion (square area of visible lesions): indomethacin alone 42.6 ± 5.2
Protocol: Gabapentin was evaluated in animals to determine its ability to prevent gastric lesions otherwise caused by indomethacin.
(§6) Male Sprague-Dawley rats weighing 240 to 250 g were fasted for 24 hours and allowed free access to water prior to experiment. All test drugs were given intragastrically. Rats were pretreated with different doses of gabapentin at doses of 40 and 60 mg. Thirty minutes later indomethacin (25 mg/kg) was administered. Another group of rats received 10 mg of gabapentin twice, 3 hours apart, followed by indomethacin administration. Three hours after indomethacin treatment, the rats were killed and gastric lesions were assessed. The severity of the lesions were determined by the measurement of the square area (mm^2) of visible lesions.

[4] = tested on: ethanol-induced gastric lesions; assay: Ethanol-induced gastric lesions in rats; assay type: in vivo; conditions: ethanol alone 41.9 ± 3.7
Protocol: as §6
To determine the effects of gabapentin on ethanol-induced gastric lesions, rats were pretreated with 1 mL of 70% ethanol, followed by gabapentin at a dose of 40 and 60 mg, respectively. Another group of rats were pretreated by 20 mg of gabapentin given twice, 3 hours apart, followed by ethanol administration. Thirty minutes later, all rats were killed and gastric lesions were assessed.

NCC1(CC(=O)O)CCCCC1 [Gabapentin, 1-(aminomethyl)-cyclohexane acetic acid]
Number of abdominal contractions/5 minutes ([1]; LPS (1 mg/kg) + Gabapentin (3.0 mg/kg (so in the source)) IP 30 min before distension, 12 hours after LPS, 0.4 mL, LPS + vehicle 9.7 ± 1.0, p <0.001): 0.7 ± 0.5 abdominal contractions/5 minutes | % of reduction vs "LPS/vehicle" ([1]; LPS (1 mg/kg) + Gabapentin (3.0 mg/kg (so in the source)) IP, 0.4 mL): -92.8% | Number of abdominal contractions/5 minutes ([1]; LPS (1 mg/kg) + Gabapentin (3.0 mg/kg (so in the source)) IP, 0.8 mL, LPS + vehicle 11.7 ± 1.2): 11.9 ± 0.8 abdominal contractions/5 minutes | Number of abdominal contractions/5 minutes ([1]; LPS (1 mg/kg) + Gabapentin (3.0 mg/kg (so in the source)) IP, 1.2 mL, LPS + vehicle 23.5 ± 2.2): 16.3 ± 3.2 abdominal contractions/5 minutes | Number of abdominal contractions/5 minutes ([2]; Gabapentin 30 mg/kg IP 30 min before, volume of distension 0.4mL, vehicle 4.4 ± 1.6, mean ± SEM): 5.0 ± 2.1 abdominal contractions/5 minutes | % of reduction vs vehicle ([2]; Gabapentin 30 mg/kg IP, volume of distension 0.8 mL): -45% | Number of abdominal contractions/5 minutes ([2]; Gabapentin 30 mg/kg IP, volume of distension 0.8 mL, vehicle 19.1 ± 2.8, p <0.01): 10.6 ± 3.4 abdominal contractions/5 minutes | % of reduction vs vehicle ([2]; Gabapentin 30 mg/kg IP, volume of distension 1.2 mL): -31.2% | Number of abdominal contractions/5 minutes ([2]; Gabapentin 30 mg/kg IP, volume of distension 1.2 mL, vehicle 23.4 ± 2.6, p <0.05): 16.1 ± 2.3 abdominal contractions/5 minutes | Number of abdominal contractions/5 minutes ([2]; Gabapentin 100 mg/kg IP, volume of distension 0.4mL, vehicle 3.9 ± 1.8): 2.0 ± 1.4 abdominal contractions/5 minutes | % of reduction vs vehicle ([2]; Gabapentin 100 mg/kg IP, volume of distension 0.8 mL): -61.2% | Number of abdominal contractions/5 minutes ([2]; Gabapentin 100 mg/kg IP, volume of distension 0.8 mL, vehicle 19.6 ± 2.3, p <0.01): 7.6 ± 3.4 abdominal contractions/5 minutes | Number of abdominal contractions/5 minutes ([2]; Gabapentin 100 mg/kg IP, volume of distension 1.2 mL, vehicle 19.1 ± 2.3): 16.7 ± 2.9 abdominal contractions/5 minutes | gastric lesion (square area of visible lesions) ([3]; gabapentin 10 mg twice, 3 hours apart, followed by indomethacin 25 mg/kg): 4.2 ± 0.39 mm^2 | gastric lesion (square area of visible lesions) ([3]; gabapentin 40 mg intragastrically 30 min before indomethacin 25 mg/kg, assessed 3 hours after indomethacin, mean ± SEM): 22.3 ± 2.8 mm^2 | gastric lesion (square area of visible lesions) ([3]; gabapentin 60 mg/kg (so in the source) intragastrically 30 min before indomethacin 25 mg/kg): 16.5 ± 2.2 mm^2 | gastric bleeding ([3]; gabapentin pretreatment before indomethacin 25 mg/kg): dramatically reduced | area of injury ([4]; 40 mg gabapentin, 1 mL of 70% ethanol): 24.4 ± 3.5 mm^2 | area of injury ([4]; 60 mg gabapentin, 1 mL of 70% ethanol): 18.7 ± 2.2 mm^2 | area of injury ([4]; 2 doses of 20 mg gabapentin, 3 hours apart, then 1 mL of 70% ethanol, assessed 30 min later): 2.1 ± 0.3 mm^2
